Source: US12358863B2, “Nitrogen-containing derivative of substituted phenol hydroxy acid ester, and preparation and use thereof” (priority 2019, dated 2025)
Where two headings read alike, the source gives them in different places.

What was measured:
Kunming mice [1] = assay type: in vivo, mouse
Method: For each drug, 10 male Kunming mice weighing 20-35 g were included, and the dose of each drug was 2×ED50 in mice. After the compound of the present invention and fospropofol were respectively dissolved in saline, the resultant solutions were injected via the mouse tail vein. For propofol, a glucose dilution (5 mg/mL) of a commercially available emulsion of diprivan was selected and injected via the mouse tail vein; while, for another substituted phenol molecule (CAS:1637741-58-2), its 30% fat emulsion was prepared as a medicated emulsion. The concentration of the injectable solution of the compound according to the present invention was 10-15 mg/mL, and the concentration of the injectable solution of fospropofol was 55 mg/mL, while the concentration of the injectable solution of another substituted phenol molecule (CAS:1637741-58-2) was 1 mg/mL. After injection of tested drug, the occurrence time T1 of righting reflex after its disappearance, the duration T2 for the disappearance of righting reflex (i.e. anesthesia time) and the time T3 required for the animal to recover completely after waking up were recorded. Complete recovery refers to the recovery of autonomous activities of animals to the level before administration. In the experiment, animals were not given respiratory support such as oxygen inhalation or intubation.

[2] = Decomposition of prodrugs in mouse plasma in vitro (HPLC of released propofol or other substituted phenol); assay type: in vitro ADME; settings: 37° C.
Method: The prodrug to be tested was prepared into a saline solution of 10 mg/mL. 10 μL of drug-containing solution was added to 990 μL of mouse plasma, vortexed for 30 s, and then incubated at 37° C. At 30 s, 1 min, 5 min, 10 min, 30 min, 60 min and 120 min, 50 μL of drug-containing plasma was collected, to which was immediately added 150 μL of acetonitrile to terminate the enzymatic reaction, and then centrifuged at 20000 rpm and 4° C. for 10 min. 50 μL of supernatant was taken out and injected into HPLC, to determine the concentration of propofol by internal standard method. The decomposition rate of the prodrug was calculated from the concentrations of propofol or other substituted phenols. Chromatographic conditions: Agilent Zorbax XdB C18 column (150 mm)×4.6 mm, 5 μm); column temperature 30° C.; the mobile phase, water:acetonitrile (40:60, v/v); fluorescence wavelength: excitation wavelength (Ex) at 276 nm, emission wavelength (EM) at 310 nm; flow rate: 1.2 mL/min; retention time: internal standard (thymol) 3.9 min, propofol 7.4 min. Linear range of propofol or other substituted phenols: 50-35000 ng/mL. Instruments: Waters 2695 high performance liquid chromatograph, Waters 2475 fluorescence detector.

Kunming mice [3] = experiment: Determination of therapeutic index (ED50 and LD50, up-and-down method); assay type: in vivo, mouse; settings: half male and half female
Method: Determination of therapeutic index (TI) of prodrug molecules: by referring the method in literature (Dixon, W. Staircase bioassay: the up-and-down method. Neurosci. Biobehav. Rev. 1991, 15, 47-50), the half-effective dose (ED50) and half-lethal dose (LD50) of the molecule to be tested were determined in Kunming mice (weighing 25-30 g, half male and half female). The therapeutic index for each molecule was calculated according to the equation: TI=LD50/ED50.

[4] = Table 4 (other substituted phenols and prodrugs), dose 2×ED50, tail vein injection, male Kunming mice
[5] = Table 3, dose 2×ED50, tail vein injection, male Kunming mice

| Compound | T1: the onset time after injection (Kunming mice [1]; [4]) | T2: the duration of disappearance of righting reflex (Kunming mice [1]; [4]) [min] | T3: the time required for righting reflex to recover to autonomous activity (Kunming mice [1]; [4]) [min] | T1: the onset time after injection (Kunming mice [1]; mouse, in vivo) | T2: the duration of disappearance of righting reflex (Kunming mice [1]; mouse, in vivo) [min] | T3: the time required for righting reflex to recover to autonomous activity (Kunming mice [1]; mouse, in vivo) [min] | Decomposition rates of prodrugs ([2]; 30 s) [%] | Decomposition rates of prodrugs ([2]; 1 min) [%] | Decomposition rates of prodrugs ([2]; 5 min) [%] | Decomposition rates of prodrugs ([2]; 10 min) [%] | Decomposition rates of prodrugs ([2]; 30 min) [%] | Decomposition rates of prodrugs ([2]; 60 min) [%] | Decomposition rates of prodrugs ([2]; 120 min) [%] | T1: the onset time after injection (Kunming mice [1]; [5]) | T2: the duration of disappearance of righting reflex (Kunming mice [1]; [5]) [min] | T3: the time required for righting reflex to recover to autonomous activity (Kunming mice [1]; [5]) [min] | TI (therapeutic index) (Kunming mice [3]) |
| --- | --- | --- | --- | --- | --- | --- | --- | --- | --- | --- | --- | --- | --- | --- | --- | --- | --- |
| CC(C)c1cccc([C@H](C)C2CC2)c1O [(R)-2-cyclopropylethyl-6-isopropylphenol, reference compound] | Immediate | 5 to 8 | 1 to 2 | – | – | – | – | – | – | – | – | – | – | – | – | – | – |
| CC(C)c1cccc(C(C)C)c1OC(=O)COC(=O)CN [Compound 1] | – | – | – | Immediate | 6 to 12 | 1 to 2 | 97 | 100 | 100 | 100 | 100 | 100 | 100 | – | – | – | – |
| CNCC(=O)OCC(=O)Oc1c(C(C)C)cccc1C(C)C [Compound 2] | – | – | – | Immediate | 7 to 15 | 1 to 2 | 87 | 98 | 100 | 100 | 100 | 100 | 100 | – | – | – | – |
| CC(C)c1cccc(C(C)C)c1OC(=O)COC(=O)CN(C)C [Compound 3] | – | – | – | Immediate | 5 to 10 | 1 to 2 | 51 | 67 | 80 | 90 | 97 | 100 | 100 | – | – | – | – |
| CC(C)c1cccc(C(C)C)c1OC(=O)COC(=O)[C@H](C)N [Compound 4] | – | – | – | – | – | – | 94 | 100 | 100 | 100 | 100 | 100 | 100 | Immediate | 5 to 13 | 1 to 2 | – |
| CC(C)c1cccc(C(C)C)c1OC(=O)COC(=O)CN1CCN(C)CC1 [Compound 7] | – | – | – | Immediate | 6 to 13 | – | 91 | 100 | 100 | 100 | 100 | 100 | 100 | – | – | 1 to 2 | 3.9 |
| CC(C)c1cccc([C@H](C)C2CC2)c1OC(=O)COC(=O)CN1CCOCC1.Cl [Compound 17] | Immediate | 5.5 to 8 | 1 to 2 | – | – | – | 55 | 63 | 78 | 85 | 100 | 100 | 100 | – | – | – | – |
| CC(C)c1cccc([C@H](C)C2CC2)c1OC(=O)COC(=O)CN1CCOCC1 [Compound 19] | Immediate | 5.5 to 9 | 1 to 2 | – | – | – | – | – | – | – | – | – | – | – | – | – | – |
| CC(C)c1cccc(C(C)C)c1OC(=O)COC(=O)CN1CCOCC1 [Compound 22] | – | – | – | Immediate | 4.5 to 10.5 | – | 58 | 66 | 80 | 89 | 100 | 100 | 100 | – | – | 1 to 2 | 4.7 |
| CC(C)c1cccc(C(C)C)c1OC(=O)COC(=O)CN1CCOCC1 [Compound 23] | – | – | – | – | – | – | 89 | 100 | 100 | 100 | 100 | 100 | 100 | Immediate | 5 to 13 | 1 to 2 | 4.4 |
| CC(C)c1cccc(C(C)C)c1OC(=O)COC(=O)CN1CCOCC1 [Compound 27] | – | – | – | – | – | – | 60 | 65 | 79 | 86 | 100 | 100 | 100 | Immediate | 4 to 12 | 1 to 2 | 4.5 |
| CC(C)c1cccc(C(C)C)c1OC(=O)COC(=O)CN1CCCCC1 [Compound 29] | – | – | – | Immediate | 5 to 14 | – | 88 | 100 | 100 | 100 | 100 | 100 | 100 | – | – | 1 to 2 | 4.1 |
| CC(C)c1cccc(C(C)C)c1OC(=O)COC(=O)CN1CCC1.Cl [Compound 37] | – | – | – | – | – | – | 75 | 92 | 100 | 100 | 100 | 100 | 100 | Immediate | 4 to 10 | 1 to 2 | 3.9 |
| CC(C)c1cccc(C(C)C)c1OC(=O)COC(=O)[C@@H](C)N(C)C.Cl [Compound 41] | – | – | – | – | – | – | 89 | 100 | 100 | 100 | 100 | 100 | 100 | Immediate | 5 to 13 | 1 to 2 | 3.8 |
| CC(C)c1cccc([C@H](C)C2CC2)c1OC(=O)COC(=O)CN1CCCCC1.Cl [Compound 53] | Immediate | 5 to 8.5 | 1 to 2 | – | – | – | – | – | – | – | – | – | – | – | – | – | – |
| CC(C)c1cccc([C@@H](C)C2CC2)c1OC(=O)COC(=O)CN1CCCC1.Cl [Compound 55] | Immediate | 5 to 9 | 1 to 2 | – | – | – | – | – | – | – | – | – | – | – | – | – | – |
| CC(C)c1cccc(C(C)C)c1O [Propofol, reference compound] | – | – | – | Immediate | 5 to 11.5 | 1 to 2 | – | – | – | – | – | – | – | – | – | – | 4.4 |
